Results taken from patent US10899758B2, “Inhibitors of the menin-MLL interaction” (Vitae Pharmaceuticals, LLC, priority 2016, dated 2021).

Biological target: T1, menin/MLL binding (biotinylated wild-type or mutated menin and MLL-AF9 fusion protein) (Homo sapiens, UniProt O00255)
T1 construct: biotinylated (1) wild-type menin or (2) mutated menin (described in Nature (2012) Vol. 482, pp. 542-548); fused on or other part: Biotin attached chemically (Sulfo-NHS-Biotin); no fused second protein is printed for menin
T1 sequence (O00255 1-459 limits assumed): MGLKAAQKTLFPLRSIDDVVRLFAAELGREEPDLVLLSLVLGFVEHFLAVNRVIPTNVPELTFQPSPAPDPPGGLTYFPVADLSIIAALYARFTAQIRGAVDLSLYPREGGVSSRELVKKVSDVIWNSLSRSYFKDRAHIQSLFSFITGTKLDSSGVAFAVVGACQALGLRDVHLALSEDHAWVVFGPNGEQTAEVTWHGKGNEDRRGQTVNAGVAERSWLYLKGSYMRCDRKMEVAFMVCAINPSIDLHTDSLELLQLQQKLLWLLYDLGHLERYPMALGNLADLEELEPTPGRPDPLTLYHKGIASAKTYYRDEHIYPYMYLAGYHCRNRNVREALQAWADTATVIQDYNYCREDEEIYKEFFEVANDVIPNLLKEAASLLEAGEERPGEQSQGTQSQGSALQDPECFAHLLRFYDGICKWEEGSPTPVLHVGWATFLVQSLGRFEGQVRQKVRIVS
Experiment: Assay 1 (Binding Assay): AlphaLISA menin/MLL binding
Settings: 5 nM biotinylated menin, MLL-AF9-FLAG lysate
Procedure: Potencies of inhibitor compounds against menin/MLL binding were assessed by AlphaLISA assay using biotinylated (1) wild-type menin or (2) mutated menin (described in Nature (2012) Vol. 482, pp. 542-548) and MLL-AF9 fusion protein bearing a FLAG epitope at its C-terminus. Menin proteins were expressed in E. coli and covalently modified with biotin using EZ-Link™ Sulfo-NHS-Biotin (ThermoFisher Cat. No. 21217) according to manufacturer's protocol. MLL1-1,396 fused to AF91-92 and the C-terminal FLAG peptide was expressed in HEK293 cells and used as a lysate cleared at 21,000×g for 10 min.
Compounds (2 μL of solutions in DMSO) were dispensed in white 96-well half-area plates (Corning Cat. No. 3693) and incubated for 30 min at RT with 5 nM biotinylated menin and appropriate amount of MLL-AF9-FLAG lysate in 40 μL of 50 mM Tris-HCl buffer pH 7.4 containing 5% (v/v) DMSO, 50 mM NaCl, 0.01% (w/v) bovine serum albumin (BSA) and 1 mM DTT. To this incubation mixture, 40 μl of AlphaLISA anti-FLAG acceptor (PerkinElmer Cat. No. AL112C) and streptavidin donor (PerkinElmer Cat. No. 6760002) beads (10 μg/mL each) was added and incubation continued at RT for 60 min. Alpha (amplified luminescent proximity homogeneous assay) signal was measured on an Envision multi-label plate reader at the end of the incubation. All steps were conducted under dim fluorescent light.
These percent inhibition values were regressed against compound concentrations in the assay using four parameter logit non-linear curve fitting (XLFit, IDBS). The IC50 values were derived from the curve fitting as inflection points on the dose-response curves and are set out in Table 14 below.

SMILES | IC50 [nM]
Cc1c(CN2CCC(c3cn(-c4ccc(F)cc4)c4cncnc34)CC2)ccc2[nH]c(C#N)cc12 [Example 66, 5-((4-(5-(4-fluorophenyl)-5H-pyrrolo[3,2-d]pyrimidin-7-yl)piperidin-1-yl)methyl)-4-methyl-1H-indole-2-carbonitrile] | 100 to 1000
O=c1[nH]c2ccc(CN3CCC(c4cn(-c5ccc(F)cc5)c5cncnc45)CC3)cc2[nH]1 [Example 67, 5-((4-(5-(4-fluorophenyl)-5H-pyrrolo[3,2-d]pyrimidin-7-yl)piperidin-1-yl)methyl)-1H-benzo[d]imidazol-2(3H)-one] | ≥ 1000
Fc1ccc(-n2cc(C3CCN(Cc4ccc5cc[nH]c5c4)CC3)c3ncncc32)cc1 [Example 68, 7-(1-((1H-indol-6-yl)methyl)piperidin-4-yl)-5-(4-fluorophenyl)-5H-pyrrolo[3,2-d]pyrimidine] | ≥ 1000
Fc1ccc(-n2cc(C3CCN(Cc4ccc5[nH]ccc5c4)CC3)c3ncncc32)cc1 [Example 69, 7-(1-((1H-indol-5-yl)methyl)piperidin-4-yl)-5-(4-fluorophenyl)-5H-pyrrolo[3,2-d]pyrimidine] | 100 to 1000
Cc1cc(F)ccc1-n1cc(C2CCN(Cc3ccc4[nH]c(C#N)cc4c3C)CC2)c2ncncc21 [Example 70, 5-((4-(5-(4-fluoro-2-methylphenyl)-5H-pyrrolo[3,2-d]pyrimidin-7-yl)piperidin-1-yl)methyl)-4-methyl-1H-indole-2-carbonitrile] | 100 to 1000
Cc1c(CN2CCC(c3cn(-c4cccc(F)c4)c4cncnc34)CC2)ccc2[nH]c(C#N)cc12 [Example 71, 5-((4-(5-(3-fluorophenyl)-5H-pyrrolo[3,2-d]pyrimidin-7-yl)piperidin-1-yl)methyl)-4-methyl-1H-indole-2-carbonitrile] | ≥ 1000
Cc1c(CN2CCC(c3cn(-c4ccccc4)c4cncnc34)CC2)ccc2[nH]c(C#N)cc12 [Example 72, 4-methyl-5-((4-(5-phenyl-5H-pyrrolo[3,2-d]pyrimidin-7-yl)piperidin-1-yl)methyl)-1H-indole-2-carbonitrile] | ≥ 1000
O=c1[nH]c2ccc(CN3CCC(c4cn(-c5ccccc5)c5cncnc45)CC3)cc2[nH]1 [Example 73, 5-((4-(5-phenyl-5H-pyrrolo[3,2-d]pyrimidin-7-yl)piperidin-1-yl)methyl)-1H-benzo[d]imidazol-2(3H)-one] | ≥ 1000
CC(C)N(C)C(=O)c1cc(F)ccc1-n1c(=O)n(C2CCN(Cc3ccc4[nH]c(=O)[nH]c4c3)CC2)c2ccncc21 [Example 79, 5-fluoro-N-isopropyl-N-methyl-2-(2-oxo-1-(1-((2-oxo-2,3-dihydro-1H-benzo[d]imidazol-5-yl)methyl)piperidin-4-yl)-1,2-dihydro-3H-imidazo[4,5-c]pyridin-3-yl)benzamide] | ≥ 1000
CC(C)N(C)C(=O)c1cc(F)ccc1-n1c(=O)n(C2CCN(CC3CCCCC3)CC2)c2ccncc21 [Example 81, 2-(1-(1-(cyclohexylmethyl)piperidin-4-yl)-2-oxo-1,2-dihydro-3H-imidazo[4,5-c]pyridin-3-yl)-5-fluoro-N-isopropyl-N-methylbenzamide] | < 100
CC(C)N(C)C(=O)c1cc(F)ccc1-n1c(=O)n(C2CCN(Cc3ccc(F)cc3)CC2)c2ccncc21 [Example 83, 5-fluoro-2-(1-(1-(4-fluorobenzyl)piperidin-4-yl)-2-oxo-1,2-dihydro-3H-imidazo[4,5-c]pyridin-3-yl)-N-isopropyl-N-methylbenzamide] | 100 to 1000
CC(C)N(C)C(=O)c1cc(F)ccc1-n1cc(C2CC3CN(C[C@H]4C[C@H](NS(C)(=O)=O)C4)CC3C2)c2ccncc21 (stereo partly drawn) [Example 89, 5-fluoro-N-isopropyl-N-methyl-2-(3-(2-((trans-3-(methylsulfonamido)cyclobutyl)methyl)octahydrocyclopenta[c]pyrrol-5-yl)-1H-pyrrolo[2,3-c]pyridin-1-yl)benzamide] | < 100
CC(C)N(C)C(=O)c1cc(F)ccc1-n1cc(C2CCN(c3ccccn3)CC2)c2ccncc21 [Example 94, 5-fluoro-N-isopropyl-N-methyl-2-(3-(1-(pyridin-2-yl)piperidin-4-yl)-1H-pyrrolo[2,3-c]pyridin-1-yl)benzamide] | < 100
CC(C)N(C)C(=O)c1cc(F)ccc1-n1cc([C@H]2CC[C@@H](N3CCC[C@H]3CO)CC2)c2ccncc21 [Example 97, 5-fluoro-2-(3-(cis-4-((S)-2-(hydroxymethyl)pyrrolidin-1-yl)cyclohexyl)-1H-pyrrolo[2,3-c]pyridin-1-yl)-N-isopropyl-N-methylbenzamide] | < 100
CC(C)N(C)C(=O)c1cc(F)ccc1-n1cc([C@H]2CC[C@H](N3CC(CO)C3)CC2)c2ccncc21 [Example 98, 5-fluoro-2-(3-(trans-4-(3-(hydroxymethyl)azetidin-1-yl)cyclohexyl)-1H-pyrrolo[2,3-c]pyridin-1-yl)-N-isopropyl-N-methylbenzamide] | < 100
CC(C)N(C)C(=O)c1cc(F)ccc1-n1cc([C@H]2CC[C@@H](N3CC(CO)C3)CC2)c2ccncc21 [Example 99, 5-fluoro-2-(3-(cis-4-(3-(hydroxymethyl)azetidin-1-yl)cyclohexyl)-1H-pyrrolo[2,3-c]pyridin-1-yl)-N-isopropyl-N-methylbenzamide] | 100 to 1000
CC(C)N(C)C(=O)c1cc(F)ccc1-n1cc([C@H]2CC[C@@H](N3CCC[C@@H]3CO)CC2)c2ccncc21 [Example 101, 5-fluoro-2-(3-(cis-4-((R)-2-(hydroxymethyl)pyrrolidin-1-yl)cyclohexyl)-1H-pyrrolo [2,3-c]pyridin-1-yl)-N-isopropyl-N-methylbenzamide] | < 100
CC(C)N(C)C(=O)c1cc(F)ccc1-n1cc([C@H]2CC[C@H](N3CC[C@@H](CO)C3)CC2)c2ccncc21 [Example 102, 5-fluoro-2-(3-(trans-4-((R)-3-(hydroxymethyl)pyrrolidin-1-yl)cyclohexyl)-1H-pyrrolo [2,3-c]pyridin-1-yl)-N-isopropyl-N-methylbenzamide] | < 100
CC(C)N(C)C(=O)c1cc(F)ccc1-n1cc([C@H]2CC[C@@H](N3CC[C@@H](CO)C3)CC2)c2ccncc21 [Example 103, 5-fluoro-2-(3-(cis-4-((R)-3-(hydroxymethyl)pyrrolidin-1-yl)cyclohexyl)-1H-pyrrolo[2,3-c]pyridin-1-yl)-N-isopropyl-N-methylbenzamide] | < 100
CC(C)N(C)C(=O)c1cc(F)ccc1-n1cc([C@H]2CC[C@@H](N3CC[C@H](CO)C3)CC2)c2ccncc21 [Example 105, 5-fluoro-2-(3-(cis-4-((S)-3-(hydroxymethyl)pyrrolidin-1-yl)cyclohexyl)-1H-pyrrolo[2,3-c]pyridin-1-yl)-N-isopropyl-N-methylbenzamide] | 100 to 1000
CC(C)N(C)C(=O)c1cc(F)ccc1-n1cc([C@H]2CC[C@@H](N3CCCCC3)CC2)c2ccncc21 [Example 107] | < 100
CC(C)N(C)C(=O)c1cc(F)ccc1-n1cc([C@H]2CC[C@H](N3CCC(O)CC3)CC2)c2ccncc21 [Example 108, 5-fluoro-2-(3-(trans-4-(4-hydroxypiperidin-1-yl)cyclohexyl)-1H-pyrrolo[2,3-c]pyridin-1-yl)-N-isopropyl-N-methylbenzamide] | 100 to 1000
CC(C)N(C)C(=O)c1cc(F)ccc1-n1cc([C@H]2CC[C@@H](N3CCC(F)(F)CC3)CC2)c2ccncc21 [Example 111, 2-(3-(cis-4-(4,4-difluoropiperidin-1-yl)cyclohexyl)-1H-pyrrolo[2,3-c]pyridin-1-yl)-5-fluoro-N-isopropyl-N-methylbenzamide] | 100 to 1000
CC(C)N(C)C(=O)c1cc(F)ccc1-n1cc([C@H]2CC[C@H](N3CCN(CCO)CC3)CC2)c2ccncc21 [Example 114, 5-fluoro-2-(3-(trans-4-(4-(2-hydroxyethyl)piperazin-1-yl)cyclohexyl)-1H-pyrrolo[2,3-c]pyridin-1-yl)-N-isopropyl-N-methylbenzamide] | < 100
CC(C)N(C)C(=O)c1cc(F)ccc1-n1cc([C@H]2CC[C@@H](N3CCN(CCO)CC3)CC2)c2ccncc21 [Example 115, 5-fluoro-2-(3-(cis-4-(4-(2-hydroxyethyl)piperazin-1-yl)cyclohexyl)-1H-pyrrolo[2,3-c]pyridin-1-yl)-N-isopropyl-N-methylbenzamide] | 100 to 1000
